Tested on: SGK
Test: GST pulldown of SGK from COS7 lysate with WW-domain GST fusion proteins
Format: binding, human
Settings: GST fusion on glutathione-Sepharose, COS7 lysate with SGK-FLAG or ΔN60SGK-HA, 3 h at 4°C, western blot, n = 7
Procedure: In order to better understand the molecular nature of the interaction between Nedd4-2 and SGK, in vitro GST pulldown studies were performed. […] Individual WW-domains of Nedd4-2 or Nedd4, or combinations of Nedd4-2 WW-domains, were expressed as GST fusion proteins and purified on glutathione-Sepharose beads. Lysates of COS7 cells expressing SGK or ΔN60-SGK (both SGK constructs gave the same results) were incubated with the WW-domain fusion proteins or GST alone. Bound SGK was detected by western blotting with anti-FLAG/HA.
pGEX-KG containing the cDNA of WW-domains of Nedd4 and Nedd4-2 or the empty vector were transformed into Escherichia coli strain BL21, and expression of the WW-domains-GST fusion protein or GST alone was induced with 0.5 µM isopropyl-D-1-thiogalactopyranoside for 3 h at 37°C. Bacteria were lysed using BugBuster (Novagen, Merck KGaA, Darmstadt, Germany), and the GST fusion proteins were purified on glutathione-Sepharose beads (GE Healthcare, Little Chalfont, Bucks, U.K.). COS7 cells were transiently transfected with pMT3 containing SGK/SGKS422D-FLAG or ΔN60SGK-HA. […] The glutathione-Sepharose beads, along with the fusion proteins and any binding proteins, were collected by centrifugation (1 min, 16,000 g), washed extensively in T-TBS and analyzed by SDS-PAGE and Western blotting using anti-FLAG antibody. Resulting X-ray films were analyzed densitometrically.

binding to SGK in GST pulldown (in words)	Substance
interact with SGK	Nedd4 WW1: WW-domain 1 of Nedd4, GST fusion (SPLPPGWEERQDILGRTYYVNHESRRTQWKRPTP; left off: GST, end not stated, kept)
interact with SGK	Nedd4 WW3: WW-domain 3 of Nedd4 (GFLPKGWEVRHAPNGRPFFIDHNTKTTTWEDPRL; left off: GST, end not stated, cleaved)
